{"source": "paper PMC7278776", "about": "“Multidrug Resistance Modulation Activity of Silybin Derivatives and Their Anti-Inflammatory Potential” (Antioxidants, 2020)", "key": {"[1]": {"set-up": "method as in PMID 15465345, PMID 19138735", "details": "cited from earlier work"}, "[2]": {"set-up": "method as in PMID 15465345, PMID 19138735", "details": "cited from earlier work", "remark": "listed apart in the source"}, "[3]": {"test_system": "ABCA7", "assay": "ABCA7 mRNA expression (real-time PCR)", "format": "cell-based, human", "details": "A2780/DOX, 10 µM, 48 h, without doxorubicin", "method": "(§1) The A2780/DOX cell line was seeded into 5 cm Petri dishes with DMEM medium at 1 × 10^5 cell/mL. […] After 48 h of treatment, the cells were washed with PBS and harvested using the standard trypsin-EDTA procedure. The harvested cells were centrifuged (3200× g; 10 min, 4 °C). The supernatant was discarded, and the pellets were washed with 1.5 mL of cooled PBS (5400× g; 10 min, 4 °C). The washing step was repeated with 1 mL of PBS and the cells were centrifuged again (10,000× g; 3 min, 4 °C). Afterwards, the pellets were resuspended in 1 mL of Trizol (Invitrogen, Carlsbad, CA, USA) and transferred into pre-cooled RNase-free microfuge tubes. The samples were stored at −80 °C.\nA Quant-iT RiboGreen RNA Assay Kit (Invitrogen) was used to determine the RNA concentration using the Infinite M200 plate reader (Tecan, Männedor, Switzerland). […]\n(§2) The experiment was performed using the ViiA7 Real-Time polymerase chain reaction (PCR) System (Life Technologies, Camarillo, CA, USA) with a 384-well block. Before quantitative real-time PCR, the master mix was prepared by mixing 2 µL of 8 × diluted cDNA, 1.75 µL of RNase free water, 1 µL of 5 × HotFIREPol Probe quantitative PCR Mix Plus (Solis Biodyne, Tartu, Estonia) and 0.25 µL of specific 20 × TaqMan Gene Expression Assay (Life Technologies), giving 5 µL of final reaction volume. […] After each extension phase, the fluorescence values were acquired. […]"}, "[4]": {"test_system": "ABCC2 (MRP2)", "assay": "ABCC2 mRNA expression (real-time PCR)", "format": "cell-based, human", "details": "10 µM, 48 h, without doxorubicin", "method": "as §1\nA Quant-iT RiboGreen RNA Assay Kit (Invitrogen) was used to determine the RNA concentration using the Infinite M200 plate reader (Tecan, Männedor, Switzerland). The cDNA was prepared from 0.5 µg of total RNA using a RevertAid First Strand Synthesis cDNA Kit (MBI Fermentas, Vilnius, Lithuania). The amplification of the ubiquitin C gene fragment was used to determine the quality of cDNA.\nas §2, with “acquired. Duplicate samples were used for measurement and samples with a standard deviation of duplicates > 1.0 cycle threshold (Ct) were re-analyzed. The real time PCR procedure was maintained according to MIQE (Minimum information for publication of quantitative real-time PCR experiments) guidelines.” for “acquired.”"}}, "data": [{"smiles": "COc1cc(C2Oc3cc(-c4oc5cc(O)cc(O)c5c(=O)c4O)ccc3OC2CO)ccc1O", "note": "(stereo not drawn) [Dehydrosilybin AB, 2,3-dehydrosilybin]", "values": [{"measurement": "radical scavenging compared to silybin", "setting": "[1]", "result": 25, "unit": "fold"}, {"measurement": "inhibition of lipid peroxidation compared to silybin", "setting": "[2]", "result": 10, "unit": "fold"}]}, {"smiles": "COc1cc(C2Oc3cc([C@H]4Oc5cc(O)cc(O)c5C(=O)[C@@H]4O)ccc3OC2CO)ccc1O", "note": "(stereo partly drawn) [Silybin AB, silybin]", "values": [{"measurement": "ABCA7 Expression Difference", "setting": "[3]", "result": 2.704}]}, {"smiles": "COc1cc([C@@H]2Oc3cc([C@H]4Oc5cc(O)cc(O)c5C(=O)[C@@H]4O)ccc3O[C@H]2CO)ccc1O", "note": "[Silybin B, silybin B]", "values": [{"measurement": "downregulation of ABCC2 (MRP2) expression", "setting": "[4]", "result": 66, "unit": "%"}, {"measurement": "ABCC2 Expression Difference", "setting": "[4]; A2780/DOX", "result": 0.341}, {"measurement": "ABCC2 Treated vs. Untreated", "setting": "[4]; A2780/DOX", "result": "DOWN"}]}]}
